Consider two compounds from patent US20250163044A1, “COMPOUNDS” (PSYLO PTY LTD, priority 2021, published 2025).

By EC50 is commonly meant the concentration needed to bring the measured effect to its halfway point.

In one data set the test system is Male ICR mice. As to the kind of experiment: Acute restraint stress - tail suspension test (TST). It counts as in vivo. Conditions: ICR mice after 5 h acute restraint stress, IP, 10 min before test; P-3 3, 10 mg/kg; P-8 3, 10, 30 mg/kg. How it is done:
Male ICR mice (23±3 g) were purchased from BioLASCO (Taipei, Taiwan) at 4-5 weeks of age and allowed 5-7 days to acclimate to the animal research facility at Pharmacology Discovery Services (Taipei, Taiwan). Mice were housed in groups of 10 in a large cage (47×25×15 cm) on a 12-hour light cycle (lights on: 0700) and provided ad libitum food and water except during acute restraint stress and tail-suspension testing. Temperature was maintained at 20-24° C., and all rooms (colony and testing rooms) had similar lighting intensity. All aspects of this work including housing, experimentation, and animal disposal were performed in accordance with the “Guide for the Care and Use of Laboratory Animals: Eighth Edition” (The National Academies Press, Washington, DC, 2011) in a facility accredited by the Association for Assessment and Accreditation of Laboratory Animal Care. […]
Tail Suspension Test (TST) Procedure: Mice were individually suspended on the edge of a shelf, 58 cm above a tabletop, using adhesive tape placed approximately 1 cm from the tip of the tail, for a total duration of 7 minutes. Using a stopwatch, the experimenters blinded to treatment groups recorded the duration of immobility (defined as hanging passively and motionless) during the 5 minutes spanning from 2-7 minutes. The data from 0-2 minutes was not recorded. […]

Another data set has as its target T1, 5-HT2B receptor (Homo sapiens, UniProt P41595).
T1 construct: host or cells: CHO-K1
Kind of data set: FLIPR Ca2+ flux functional assay, agonist activity at 5-HT2B. The format is cell-based. To be noted: CHO-K1 cells, Ca2+ flux; read-out: 5-HT2B EC50. In short, it runs like this:
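Stably transfected cells (HEK293 for 5-HT2A/2C, CHO-K1 for 5-HT2B) loaded 50 min at 37° C with Fluo-4 Direct dye plus 2.5 mM probenecid (final). Compounds tested as 10-point serial dilutions (3-fold; references 4-fold) and calcium fluorescence read on FLIPR Tetra after addition.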

The subject of a further data set is C57BL/6J mice. As to the kind of experiment: Biotelemetry and head-twitch response (HTR) experiments. Conditions: male C57BL/6 mice, SC, several doses (0.03 to 30 mg/kg). The format is in vivo, Mice (C57BL/6J males). An excerpt: Mice (C57BL/6J males) were purchased from the Jackson Laboratory (Bar Harbor, ME, USA) at 5-6 weeks of age and allowed at least 1-2 weeks to acclimate to the NIDA, Intramural Research Program (IRP), animal research facility in Baltimore, MD, USA. The animal facility is fully accredited by the Association for the Assessment and Accreditation of Laboratory Animal Care, and all procedures were approved by the NIDA IRP Animal Care and Use Committee. Mice were initially group housed 3-5 per cage during acclimation and housed in a 12 h light-dark cycle throughout the study, with lights on at 0700 h. Food and water were available ad libitum except during testing. Cohorts of 20-24 mice were used for each test drug. The mice were subjected to experimental testing once every 1-2 weeks for 2-3 months to complete dose-effect curves and antagonist experiments. A minimum of 7 days between treatments was utilized to avoid any tolerance to effects of repeated drug administration. All drug doses represent the weight of the salt dissolved in 0.9% saline vehicle. Mice were tested first in dose-response studies to assess the effects of each compound at doses from 0.03 to 30 mg/kg s.c. and were subsequently tested in antagonist reversal studies utilizing pretreatment with M100907 and WAY100635. All experiments were conducted from 0900 to 1700 local time during the light phase, as sensitivity of rodents to other tryptamine psychedelics is diurnal, with maximal HTR observed in the middle of the light phase. Experiments were run during the light phase also to avoid any potential influence of melatonin receptor activity on HTR as melatonin and related agonists are known to reduce HTR induced by DOI in rats. For each experiment, mice were acclimated to the testing room in their home cage for at least 1 h prior to experimental sessions. Behavioral test sessions were carried out in Tru Scan mouse locomotor arenas equipped with photobeam arrays (Coulbourn Instruments, Holliston, MA, USA), which were modified with cylindrical inserts and transparent floors useful in detecting mouse HTR.
Subcutaneous Temperature Transponder Implants. At least 1 week prior to the start of the experiments, mice received s.c. implanted temperature transponders (14×2 mm, model IPTT-300, Bio Medic Data Systems, Inc., Seaford, DE, USA) under brief isoflurane anesthesia. Mice were single housed post implant for the remainder of the study to protect the transponder from removal by cage mates. Temperature was determined noninvasively using a handheld receiver that is sensitive to signals emitted from the implanted transponders.
Prior to each experiment, mouse body weight and temperature were recorded. Mice were then placed into testing chambers for acclimation. In dose-response studies, after a brief 5 min acclimation, mouse body temperature was recorded for baseline measurement, mice received s.c. injection of test substance or vehicle, and animals were returned to the testing arena for 30 min. During the session, locomotor activity was monitored via photobeam tracking of movements in the horizontal plane to yield distance traveled in centimeter. HTR was monitored by the analysis of GoPro Hero Black 7 video recordings (120 frames per sec and 960p resolution) using a commercially available software package from Clever Sys Inc. (Reston, VA, USA). 82 Post-treatment body temperature values were also recorded, and temperature data are represented as change from pretreatment baseline.
In antagonist reversal experiments, mice received a s.c. injection of either receptor antagonists or vehicle and were returned to the testing chamber for 30 min. During this period, locomotor activity was monitored to examine the potential effects of antagonist treatment on general behavior or movement. At 30 min after antagonist administration, mice were given test drug or vehicle and returned to the chambers for an additional 30 min of video recording used for analyses. […]

T1 sequence (P41595 whole entry): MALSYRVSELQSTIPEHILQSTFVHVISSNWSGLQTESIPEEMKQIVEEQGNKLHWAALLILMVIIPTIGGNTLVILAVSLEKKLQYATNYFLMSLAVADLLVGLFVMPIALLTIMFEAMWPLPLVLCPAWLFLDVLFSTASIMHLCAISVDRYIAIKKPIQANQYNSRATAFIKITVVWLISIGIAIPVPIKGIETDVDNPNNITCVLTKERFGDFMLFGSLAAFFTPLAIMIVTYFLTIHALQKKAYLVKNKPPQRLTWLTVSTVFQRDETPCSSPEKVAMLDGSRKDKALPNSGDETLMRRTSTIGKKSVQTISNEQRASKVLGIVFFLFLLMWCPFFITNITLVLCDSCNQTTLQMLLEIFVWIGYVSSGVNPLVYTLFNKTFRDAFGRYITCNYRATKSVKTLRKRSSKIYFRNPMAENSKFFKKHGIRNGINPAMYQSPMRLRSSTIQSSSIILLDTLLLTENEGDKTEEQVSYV

For `COc1ccc2[nH]nc(CCN(C)C)c2c1` [Example P-8, 2-(5-methoxy-1H-indazol-3-yl)-N,N-dimethylethan-1-amine], the “Immobility time in tail suspension test” value in the data set with Male ICR mice was “decrease the immobility time”. Moreover, the EC50 on 5-HT2B receptor is above 10 µM.

For the compound `COc1cnc2[nH]cc(CCN(C)C)c2c1` [Example P-3, 2-(5-methoxy-1H-pyrrolo[2,3-b]pyridin-3-yl)-N,N-dimethylethan-1-amine], the “Immobility time in tail suspension test” value in the data set with Male ICR mice is listed as “decrease the immobility time”. Besides, in the data set on C57BL/6J mice, the “Head-twitch response (HTR)” value was “not promoting increased head-twitch response” and the “Tolerability (temperature, locomotor activity)” value is recorded as “well-tolerated”.
